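Values below derive from 48-hour exposures of cells grown in 96-well plates, with endpoints linearly interpolated between the two concentrations bracketing the appropriate inhibition level. Here, GI50 denotes the concentration required for 50% inhibition of growth. TGI is the concentration that stops growth completely.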
Legend:
Assay in all cases: growth of human tumour cells (NCI), 48 h
[1] = system: CAKI-1 renal
[2] = system: MDA-MB-435
[3] = system: HL-60(TB) leukemia
[4] = system: HCC-2998 colon
[5] = system: HS 578T breast
[6] = system: HCT-116 colon
[7] = system: SR leukemia
[8] = system: SF-268 CNS
[9] = system: DU-145 prostate
[10] = system: K-562 leukemia
[11] = system: SNB-19 CNS
[12] = system: SK-MEL-28 melanoma
[13] = system: NCI-H460 lung
[14] = system: SW-620 colon
[15] = system: UACC-257 melanoma
[16] = system: T-47D breast
[17] = system: ACHN renal
[18] = system: EKVX NSCLC
[19] = system: SF-295 CNS
[20] = system: OVCAR-5 ovarian
[21] = system: UACC-62 melanoma
[22] = system: HT29 colon
[23] = system: IGROV1 ovarian
[24] = system: CCRF-CEM leukemia
[25] = system: SK-OV-3 ovarian
[26] = system: MALME-3M melanoma
[27] = system: RPMI-8226 leukemia
[28] = system: M14 melanoma
[29] = system: A498 renal
[30] = system: A549 NSCLC
[31] = system: HOP-62 NSCLC
[32] = system: TK-10 renal
[33] = system: RXF 393 renal
[34] = system: PC-3 prostate
[35] = system: LOX IMVI melanoma
[36] = system: MOLT-4 leukemia
[37] = system: MDA-MB-231 breast
[38] = system: NCI/ADR-RES ovarian
[39] = system: UO-31 renal
[40] = system: MCF7 breast
[41] = system: NCI-H226 lung
[42] = system: SN12C renal
[43] = system: SK-MEL-2 melanoma
[44] = system: HCT-15 colon
[45] = system: NCI-H23 lung
[46] = system: OVCAR-3 ovarian
[47] = system: BT-549 breast
[48] = system: SK-MEL-5 melanoma
[49] = system: KM12 colon
[50] = system: 786-0 renal
[51] = system: OVCAR-8 ovarian
[52] = system: HOP-92 NSCLC
[53] = system: SNB-75 CNS
[54] = system: COLO 205 colon
[55] = system: U251 CNS
[56] = system: SF-539 CNS
[57] = system: NCI-H522 lung
[58] = system: OVCAR-4 ovarian

`C#CCn1cnc2cnc(Nc3cccc(NC(=O)CCl)c3)nc21` was tested, and the GI50 [1] was 22.9 µM, the TGI [1] was > 62.5 µM and the GI50 [2] was 28.5 µM. The TGI [2] was > 62.5 µM, the GI50 [3] was 15.7 µM and the TGI [3] was 41.3 µM. The GI50 [4] was 46.8 µM, the TGI [4] was > 62.5 µM and the GI50 [5] was 17.3 µM. The TGI [5] was > 62.5 µM, the GI50 [6] was 21.3 µM and the TGI [6] was > 62.5 µM. For the same compound, the GI50 [7] was 56.8 µM, the TGI [7] was > 62.5 µM and the GI50 [8] was 25.8 µM. For the same compound, the TGI [8] was > 62.5 µM, the GI50 [9] was 29.8 µM and the TGI [9] was > 62.5 µM. The GI50 [10] was 23.7 µM, the TGI [10] was > 62.5 µM and the GI50 [11] was 36.5 µM. For the same compound, the TGI [11] was > 62.5 µM, the GI50 [12] was 25.3 µM and the TGI [12] was > 62.5 µM. The GI50 [13] was 22.7 µM, the TGI [13] was > 62.5 µM and the GI50 [14] was 19.1 µM. For the same compound, the TGI [14] was > 62.5 µM, the GI50 [15] was 51 µM and the TGI [15] was > 62.5 µM. For the same compound, the GI50 [16] was > 62.5 µM, the TGI [16] was > 62.5 µM and the GI50 [17] was 10.9 µM. For the same compound, the TGI [17] was 23.3 µM, the GI50 [18] was > 62.5 µM and the TGI [18] was > 62.5 µM. For the same compound, the GI50 [19] was 47.1 µM, the TGI [19] was > 62.5 µM and the GI50 [20] was 29.8 µM. The TGI [20] was > 62.5 µM, the GI50 [21] was 22.6 µM and the TGI [21] was > 62.5 µM. For the same compound, the GI50 [22] was 17.3 µM, the TGI [22] was > 62.5 µM and the GI50 [23] was 6.99 µM. The TGI [23] was 22.3 µM, the GI50 [24] was 15.3 µM and the TGI [24] was > 62.5 µM. The GI50 [25] was 23.6 µM, the TGI [25] was > 62.5 µM and the GI50 [26] was 23.2 µM. For the same compound, the TGI [26] was > 62.5 µM, the GI50 [27] was 19.2 µM and the TGI [27] was > 62.5 µM. For the same compound, the GI50 [28] was 22.5 µM, the TGI [28] was > 62.5 µM and the GI50 [29] was 21 µM. The TGI [29] was > 62.5 µM, the GI50 [30] was 20 µM and the TGI [30] was > 62.5 µM. For the same compound, the GI50 [31] was 54.7 µM, the TGI [31] was > 62.5 µM and the GI50 [32] was 22.9 µM. For the same compound, the TGI [32] was > 62.5 µM, the GI50 [33] was 10.1 µM and the TGI [33] was 25.4 µM. For the same compound, the GI50 [34] was 27.7 µM, the TGI [34] was > 62.5 µM and the GI50 [35] was 16.3 µM. For the same compound, the TGI [35] was > 62.5 µM, the GI50 [36] was 21.5 µM and the TGI [36] was > 62.5 µM. The GI50 [37] was 20.8 µM, the TGI [37] was > 62.5 µM and the GI50 [38] was 26.4 µM. For the same compound, the TGI [38] was > 62.5 µM, the GI50 [39] was 10.9 µM and the TGI [39] was 55.3 µM. For the same compound, the GI50 [40] was 15.3 µM, the TGI [40] was > 62.5 µM and the GI50 [41] was 49.9 µM. For the same compound, the TGI [41] was > 62.5 µM, the GI50 [42] was 19.4 µM and the TGI [42] was > 62.5 µM. The GI50 [43] was 43 µM, the TGI [43] was > 62.5 µM and the GI50 [44] was 29.3 µM. The TGI [44] was > 62.5 µM, the GI50 [45] was 38.8 µM and the TGI [45] was > 62.5 µM. The GI50 [46] was 15.2 µM, the TGI [46] was > 62.5 µM and the GI50 [47] was 13.3 µM. The TGI [47] was > 62.5 µM, the GI50 [48] was 10.3 µM and the TGI [48] was 19.5 µM. For the same compound, the GI50 [49] was 21.1 µM, the TGI [49] was > 62.5 µM and the GI50 [50] was 23.3 µM. For the same compound, the TGI [50] was > 62.5 µM, the GI50 [51] was 26.3 µM and the TGI [51] was > 62.5 µM. The GI50 [52] was > 62.5 µM, the TGI [52] was > 62.5 µM and the GI50 [53] was 8.18 µM. For the same compound, the TGI [53] was > 62.5 µM, the GI50 [54] was 15.2 µM and the TGI [54] was 45 µM. For the same compound, the GI50 [55] was 19.6 µM, the TGI [55] was > 62.5 µM and the GI50 [56] was 16.9 µM. The TGI [56] was > 62.5 µM, the GI50 [57] was 10.3 µM and the TGI [57] was 22.4 µM.
For `O=C1C(Cl)=C(N2CCN(CCOCCO)CC2)C(=O)c2ncccc21`, the TGI [1] was > 10 µM, the TGI [2] was 7.05 µM and the TGI [3] was > 10 µM. The TGI [4] was > 10 µM, the TGI [5] was > 10 µM and the TGI [6] was > 10 µM. The TGI [7] was > 10 µM, the TGI [8] was > 10 µM and the TGI [9] was > 10 µM. The TGI [10] was > 10 µM, the TGI [11] was > 10 µM and the TGI [12] was > 10 µM. For the same compound, the TGI [13] was > 10 µM, the TGI [14] was > 10 µM and the TGI [15] was > 10 µM. The TGI [16] was 5.51 µM, the TGI [17] was > 10 µM and the TGI [18] was > 10 µM. For the same compound, the TGI [19] was > 10 µM, the TGI [58] was > 10 µM and the TGI [20] was > 10 µM. For the same compound, the TGI [21] was > 10 µM, the TGI [22] was > 10 µM and the TGI [23] was > 10 µM. For the same compound, the TGI [24] was > 10 µM, the TGI [25] was > 10 µM and the TGI [26] was > 10 µM. The TGI [27] was > 10 µM, the TGI [28] was > 10 µM and the TGI [29] was > 10 µM. For the same compound, the TGI [30] was > 10 µM, the TGI [31] was > 10 µM and the TGI [32] was > 10 µM. For the same compound, the TGI [33] was 9.68 µM, the TGI [34] was > 10 µM and the TGI [35] was > 10 µM. The TGI [36] was > 10 µM, the TGI [37] was > 10 µM and the TGI [38] was > 10 µM. For the same compound, the TGI [40] was > 10 µM, the TGI [41] was > 10 µM and the TGI [42] was > 10 µM. For the same compound, the TGI [43] was > 10 µM, the TGI [44] was > 10 µM and the TGI [45] was > 10 µM. The TGI [46] was > 10 µM, the TGI [47] was > 10 µM and the TGI [48] was > 10 µM. The TGI [49] was > 10 µM, the TGI [50] was > 10 µM and the TGI [51] was > 10 µM. For the same compound, the TGI [52] was 3.29 µM, the TGI [53] was > 10 µM and the TGI [54] was > 10 µM. The TGI [55] was > 10 µM, the TGI [56] was > 10 µM and the TGI [57] was 6.33 µM.

Reference: PubChem BioAssay (NCI)
